Data as given in patent US11406642B2, “DNP and DNP prodrug treatment of neuromuscular, neurodegenerative, autoimmune, developmental, traumatic brain injury, concussion, dry eye disease, hearing loss and/or metabolic diseases” (priority 2016, dated 2022).
Read-outs that look alike come from different tables or passages of the source.

Experiments:
[1] = Plasma pharmacokinetics of II-38 and 2,4-DNP released from II-38; format: in vivo, Sprague-Dawley male rats; conditions: for half-life: read-out: t1/2 of II-38; for bioavailability: read-out: % F of II-38
Experimental: The oral bioavailability and plasma pharmacokinetic (PK) properties of II-38 prodrug and 2,4-DNP-released from II-38 prodrug was investigated in Sprague-Dawley (S-D) male rats after a single i.v. injection of II-38 at 1.6 mg/kg (eq. to 1 mg/kg 2,4-DNP) and an oral dose eq. to 5, 25 and 50 mg/kg of 2,4-DNP. Blood samples were taken up to […].
All procedures that involved the use of rats were conducted in accordance with the guidelines set forth by the University of Arkansas for Medical Sciences (UAMS) Institutional Animal Care and Use Committee established by the National Institutes of Health's Guide for the Care and Use of Laboratory Animals (1996). Male Sprague-Dawley rats weighing 250-300 grams were housed three per cage with ad libitum access to food and water in the Division of Laboratory Animal Resources, UAMS. Rats were anesthetized with isofluorane (2-5%)/oxygen (1.5-2.0 L/min) and surgically implanted with cannulae in the jugular (i.v. dosing) and femoral (blood sampling) veins. […] Following appropriate evidence of successful recovery from surgery, IV or oral dosing was performed and blood samples (0.15 mL) were collected at 0, 5, 15, 30, 45, 60, 120, 240 and 480 min. Plasma samples were prepared and analysis was run using a LC/MS/MS spectrometry.
For the i.v. injection, a total volume of 0.8 mL/kg was used at a dose of 1.6 mg/kg (eq. to 1 mg/kg of 2,4-DNP). For the oral route, stock solutions of II-38 containing eq. to 1, 5 and 25 mg/mL of 2,4-DNP were prepared and administered to rats at final doses eq. to 1, 5 and 25 mg/kg of 2,4-DNP, respectively. An oral dose of 8 mg/kg of II-38 (eq. to 5 mg/kg) was dissolved in a phosphate-saline buffer solution, pH 7.4 containing 5% DMSO and 20% PEG-400, while a dose of 40 mg/kg (eq. to 25 mg/kg) was formulated with 0.5% methyl cellulose (methocel) containing 1% DMSO. A high dose of II-38 (eq. 50 mg/kg) was formulated with water containing 1% DMSO and 40% PEG-400. Because of the different vehicles used in formulations of II-38, a dose eq. to 25 mg/kg of 2,4-DNP was repeated using a vehicle consisting of DMSO, PEG-400, and water (1%: 40%: 59%). The later dose was utilized for comparison of PK data of 2,4-DNP-released from II-38 for differences in formulations.
Jugular and femoral vein-catheterized Sprague-Dawley male rats (weights 250-300 g, n=4) were treated with II-38 at a single oral dose of 8, 40 and 80 mg/kg (eq. to 5, 25 and 50 mg/kg of 2,4-DNP, respectively) or injected a single i.v. dose of 1.6 mg/kg of II-38 (eq. to 1 mg/kg 2,4-DNP, n=2). Blood samples (0.15 mL) were collected at 0, 5, 15, 30, 45, 60, 120, 240 and 480 min. Plasma samples were prepared and 2,4-DNP, II-38 and 2,4-DNP-released from II-38 concentrations were quantitated using the LC/MS/MS spectrometry assay method described below.
To isolate the analytes from rat plasma, 50 μL of control or treated plasma fortified with 10 μL of 2,4-DNP-d3 (10 μg/mL) as an internal standard to which 0.3 mL of methanol followed by 0.3 mL of acetonitrile was added. The mixture was vortex-mixed for 30 s and centrifuged for 10 min at 10,000 rpm at room temperature. The supernatant was transferred into 5 mL glass tubes and evaporated to dryness at 37° C. under nitrogen gas. The pellet was reconstituted with 50 μL of acetonitrile, vortex-mixed for 30 sec, followed by sonication for 1 min. Following centrifugation at 1000 rpm for 10 min at room temperature, 5 μL of the supernatant was then injected onto the column, and analytes were quantified by a LC/MS/MS spectrometry.
1—Plasma concentrations of 2,4-DNP after a single i.v. injection of 2,4-DNP of 1 mg/kg or 5 mg/kg oral administration; 2—Plasma concentrations of II-38 and 2,4-DNP-released from II-38 after an i.v. injection 1.6 mg/kg of II-38 eq. to 1 mg/kg of 2,4-DNP or an oral dose of 8, 40 and 80 mg/kg of II-38 eq. to 5, 25 and 50 mg/kg of 2,4-DNP, respectively. […]

CYP = assay: Inhibition of CYP; format: in vitro ADME
From the text: Overt reactive oxygen species (ROSs) can be produced due to noise and certain ototoxic drugs that can damage the hair cells of the ear, resulting in either temporary or permanent hearing loss. Exposure to blast waves and continuous noise not only damaged the inner ear, but caused cell death in the hippocampus, suppressed neurogenesis and impaired memory function. Aging as well can manifest in mitochondrial dysfunction leading to hearing loss. It is emerging that attempts to treat hearing loss by targeting downstream issues is not very effective. In one embodiment, the compositions and methods of the invention relate to targeting oxidative stress upstream at the mitochondria that may be causative for many disorders. There have been a variety of attempts to lower cellular stress, such as administering anti-oxidants, however these drugs have limited tissue penetration into the brain and lower ROSs after they have been formed. […] While not being bound to theory, it is postulated that DNP modulates the mitochondrial membrane potential having a significant impact at preventing ROS formation in isolated mitochondria and in the treated wildtype mice. DNP treatment 3-hours post-ischemia reduced cerebral infarct volume 40% by protecting the penumbra or “threaten tissue” and could provide similar benefits after a blast to protect inner hair cells from eminent cell death. […]

[2] = male, Sprague-Dawley, rat, in vivo, iv, 1.6 mg/kg, single i.v. injection of II-38 1.6 mg/kg (eq. to 1 mg/kg 2,4-DNP), n = 2
[3] = male, Sprague-Dawley, rat, in vivo, po, 5 mg/kg, oral II-38 eq. to 5 mg/kg of 2,4-DNP
[4] = male, Sprague-Dawley, rat, in vivo, po, 25 mg/kg, oral II-38 eq. to 25 mg/kg of 2,4-DNP, PEG-400
[5] = male, Sprague-Dawley, rat, in vivo, po, 25 mg/kg, oral II-38 eq. to 25 mg/kg of 2,4-DNP, methocel
[6] = male, Sprague-Dawley, rat, in vivo, po, 50 mg/kg, oral II-38 eq. 50 mg/kg of 2,4-DNP

O=C(Oc1ccc([N+](=O)[O-])cc1[N+](=O)[O-])N1CCOCC1 [II-38, 2,4-Dinitrophenyl morpholine-4-carboxylate]
AUC [1, 2]: 8600 ng·h/mL | Cmax [1, 2]: 900 ± 50 ng/mL | half-life [1, 2]: 6.89 ± 1.09 h | clearance ([1]; male, Sprague-Dawley, rat, in vivo, iv, single i.v. injection of II-38 1.6 mg/kg (eq. to 1 mg/kg 2,4-DNP), n = 2, read-out: Cl of II-38): 3.1 ± 0.3 mL/min/kg | Vd ([1]; male, Sprague-Dawley, rat, in vivo, iv, single i.v. injection of II-38 1.6 mg/kg (eq. to 1 mg/kg 2,4-DNP), n = 2, read-out: Vss of II-38): 1.86 ± 0.101 L/kg | AUC [1, 3]: 15000 ng·h/mL | Cmax [1, 3]: 1100 ± 200 ng/mL | Tmax [1, 3]: 2.19 h | bioavailability [1, 3]: 44.8 ± 4.4% | half-life [1, 3]: 15.2 ± 7 h | AUC [1, 4]: 14600 ng·h/mL | Cmax [1, 4]: 2410 ± 300 ng/mL | Tmax [1, 4]: 1.5 h | bioavailability [1, 4]: 21.3 ± 0.9% | half-life [1, 4]: 7.41 ± 3.06 h | AUC [1, 5]: 18400 ng·h/mL | Cmax [1, 5]: 1800 ± 300 ng/mL | Tmax [1, 5]: 0.458 h | bioavailability [1, 5]: 31.6 ± 1.2% | half-life [1, 5]: 11 ± 4.2 h | AUC [1, 6]: 24300 ng·h/mL | Cmax [1, 6]: 1900 ± 600 ng/mL | Tmax [1, 6]: 1.69 h | bioavailability [1, 6]: 24.5 ± 1.1% | half-life [1, 6]: 17.7 ± 6.96 h

O=[N+]([O-])c1ccc(O)c([N+](=O)[O-])c1 [2,4-DNP, 2,4-dinitrophenol]
fold increased level of 2,4-DNP after oral 2,4-DNP compared to 2,4-DNP released from II-38 ([1]; 2,4-DNP 5 mg/kg oral vs II-38 oral eq. to 5 mg/kg): approximately 12.0 fold | fold increased level of 2,4-DNP after oral 2,4-DNP compared to 2,4-DNP released from II-38 ([1]; 2,4-DNP 5 mg/kg oral vs II-38 oral eq. to 25 mg/kg (PEG-400)): ~3.4 fold | fold increased level of 2,4-DNP after oral 2,4-DNP compared to 2,4-DNP released from II-38 ([1]; 2,4-DNP 5 mg/kg oral vs II-38 oral eq. to 25 mg/kg (methocel)): ~2.2 fold | fold increased level of 2,4-DNP after oral 2,4-DNP compared to 2,4-DNP released from II-38 ([1]; 2,4-DNP 5 mg/kg oral vs II-38 oral eq. to 50 mg/kg): ~1.4 fold | inhibition to CYP (CYP): no inhibition
